The values that follow come from US20110124626A1, “BENZAZEPINE DERIVATIVES AND THEIR USE AS HISTAMINE H3 ANTAGONISTS” (TAKEDA PHARMACEUTICAL COMPANY LIMITED, priority 2008, published 2011).

The target of assay [1] is T1, human H3 receptor (Homo sapiens, UniProt Q9Y5N1).
T1 construct: expressed in transfected cells
The assay is described as follows: In vitro H3 binding assay (3H-N-α-methyl-histamine competition binding). The note with it: membranes of CHO-K1 cells expressing human H3 receptor; 2 nM 3H-NαMH; read-out: hH3 binding IC50. The procedure: The ability of compounds to bind to the H3 receptor was determined by measuring the reduction in tritiated N-α-methyl-histamine (^3H—NαMH) binding in a competition binding assay. Changes in the levels of bound radio-label were monitored by scintillation counting with a Trilux Microbeta (Perkin Elmer).
Membranes were prepared from CHO-K1 cells stably expressing human H3 receptor; routinely grown as monolayers in Ham's F12 medium (Invitrogen) supplemented with 10% Foetal Clone 111 (Hyclone), 500 μg/ml G418 (Invitrogen), 5 μg/ml blasticidine S (Invivogen) and […] Gentamicin (Sigma) in 5% CO2 at 37° C. Cells were grown to 80-95% confluency, rinsed once with 1×PBS (Invitrogen) and detached by incubating with 1×PBS containing 0.02% EDTA (Sigma) for 10 minutes at room temperature. Cells were collected by centrifugation at 900×g, 4° C. for 10 minutes. Cells were rinsed once with 1×PBS and re-suspended in ice cold homogenisation buffer (50 mM Tris-HCl (pH 7.4), 2.5 mM EDTA, 5 mM MgCl2, 200 mM Sucrose) at 1×10^7 cells/ml and kept on ice. Cells were homogenised on ice and debris removed by centrifugation at 500×g, 4° C. for 5 minutes. The resulting supernatant was centrifuged at 75,600×g, 4° C. for 60 minutes. Membranes were suspended in homogenisation buffer, protein concentration was determined (BCA Protein Assay kit (Pierce)), diluted to 2.2 mg/ml, dispensed into 1 ml aliquots and stored at −80° C.
Membranes were thawed on ice, sonicated with 4 cycles of 20 pulses (50% amplitude, 0.5 pulse) (UP200S Hielscher) on ice, diluted in assay buffer (50 mM Tris-HCl (pH7.4), 5 mM MgCl2) to 62.5 μg/ml. Compound was serially diluted in DMSO before being diluted 1:10 with assay buffer. 5 μg of membrane in 80 μl of assay buffer was added per well of a 96 well polystyrene plate (Corning). […] of compound was added per well. The assay was initiated by the addition of 10 μl of 20 nM ^3H—NαMH per well and incubated for one hour at room temperature with shaking. Total binding was determined in the presence of 1% DMSO and non-specific binding was determined by the inclusion of 1 μM R-α-methyl-histamine (RαMH). Incubations were then filtered through filtermat A (Perkin Elmer) and washed three times with assay buffer. Filtermats were dried at 42° C. for two hours, scintillant added and the level of bound radioactivity determined.
IC50 values for compounds were determined from seven point log scale dose-response studies and represent the concentration of compound required to inhibit 50% of the specific binding of 2 nM ^3H—NαMH (difference between total and non-specific binding). Curves were generated using the average of duplicate wells for each data point and analyzed using nonlinear regression of sigmoidal dose response (variable slope).

Assay [2] addresses T1, human H3 receptor. The assay is described as follows: In vitro H3 functional assay (cAMP response element driven luciferase reporter). Type of assay: cell-based. The note with it: CHO(dhfr+)-cre-luc cells expressing human H3 receptor; RαMH 10 nM, forskolin 1 μM; read-out: hH3 functional IC50. The protocol: The functional activity of compounds at the H3 receptor was determined by measuring changes in the level of intracellular cAMP using a cAMP response element driven luciferase reporter assay. The changes in luciferase expression were monitored by a luminescence plate reader, Analyst HT (MDS Analytical). Increases in intracellular cAMP were readily detected upon activation of protein kinase A by forskolin (Sigma) and suppression of this response observed with the application of the H3 receptor agonist RαMH (Sigma).
CHO(dhfr^+)-cre-luc cells stably expressing human H3 receptor were routinely grown as monolayers in Minimal Essential Medium α (MEMα) (Invitrogen) supplemented with 10% dialysed FBS (Hyclone), in 5% CO2 at 37° C. 48 hours prior to assay, cells were seeded in clear-base white walled 384-well plates (Corning) at a density of 5000 cells/well. On the day of assay, growth media was removed and replaced with […] of assay buffer (MEMα, 5 mg/ml fatty acid free BSA (Sigma)) per well. Cells were then incubated for 30 minutes at 37° C., 5% CO2. Compound was serially diluted in DMSO before being diluted 1:10 with assay buffer. 2.5 of compound diluted in assay buffer was added and cells incubated for 5 minutes at 37° C., 5% CO2. 2.5 μl of each reagent was then added in the following order: RαMH (10 nM), isobutylmethylxanthine (1-methyl-3-(2-methylpropyl)-7H-purine-2,6-dione; IBMX) (500 μM) (Sigma) and forskolin (1 μM). Cells were then incubated for 90 minutes at 37° C., 5% CO2, followed by 30 minutes at room temperature. At the end of incubation 25 μl of Steadylite reagent (Perkin Elmer) was added, plates were sealed and placed on a shaker for 5 minutes. The level of light output to determine the level of luciferase expression was then measured.
IC50 values for compounds were determined from ten point half log scale dose-response studies and represent the concentration of compound required to […] 50% inhibition of forskolin stimulated cells in the presence of RαMH alone. Curves were generated using the average of duplicate wells for each data point and analyzed using nonlinear regression of four parameter dose response.
On the technique in general: A reporter such as luciferase makes a cellular process visible.

T1 sequence (Q9Y5N1 whole entry): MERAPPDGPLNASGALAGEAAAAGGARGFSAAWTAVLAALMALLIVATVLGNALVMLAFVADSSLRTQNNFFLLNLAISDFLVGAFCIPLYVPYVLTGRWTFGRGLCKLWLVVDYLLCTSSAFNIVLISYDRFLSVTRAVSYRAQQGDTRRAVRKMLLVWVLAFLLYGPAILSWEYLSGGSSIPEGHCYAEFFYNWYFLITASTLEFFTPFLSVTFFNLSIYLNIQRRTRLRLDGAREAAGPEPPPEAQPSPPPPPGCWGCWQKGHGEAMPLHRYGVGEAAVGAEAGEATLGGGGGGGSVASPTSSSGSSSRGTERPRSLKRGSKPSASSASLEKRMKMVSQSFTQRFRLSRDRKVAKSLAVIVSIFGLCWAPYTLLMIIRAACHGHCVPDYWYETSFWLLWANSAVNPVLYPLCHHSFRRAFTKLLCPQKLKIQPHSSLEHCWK

The term IC50 denotes the concentration at which inhibition is half-maximal. For `CC(=O)N1CCC(C(O)Cc2ccc3c(c2)CCN(C2CCC2)CC3)CC1` (racemic) [Example 146, 1-(4-(2-(3-cyclobutyl-2,3,4,5-tetrahydro-1H-benzo[d]azepin-7-yl)-1-hydroxyethyl)piperidin-1-yl)ethanone], the IC50 on human H3 receptor [1] and on human H3 receptor [2] was 10 nM in each case.

As for `CCC(=O)N1CCC(CC(O)Cc2ccc3c(c2)CCN(C2CCC2)CC3)CC1` (single isomer, unassigned) [Example 233, 1-(4-(3-(3-cyclobutyl-2,3,4,5-tetrahydro-1H-benzo[d]azepin-7-yl)-2-hydroxypropyl)piperidin-1-yl)propan-1-one], the IC50 on human H3 receptor [1] was determined as 2 nM; on human H3 receptor [2], 16 nM.

In the case of `CCC(=O)N1CCC[C@H](CC(O)Cc2ccc3c(c2)CCN(C2CCC2)CC3)C1` (single isomer, unassigned) [Example 251], the IC50 at human H3 receptor [1] came to 11 nM; at human H3 receptor [2] it was 6 nM.

Turning to `CCC(=O)N1CCC(C)(C(O)Cc2ccc3c(c2)CCN(C2CCC2)CC3)CC1` (single isomer, unassigned) [Example 257, 1-{4-[2-(3-cyclobutyl-2,3,4,5-tetrahydro-1H-3-benzazepin-7-yl)-1-hydroxyethyl]-4-methylpiperidin-1-yl}propan-1-one], the IC50 at human H3 receptor [1] came out at 25 nM; at human H3 receptor [2], 7 nM.

With `Cn1nccc1CNC(=O)c1ccc2c(c1)CCN(C1CCC1)CC2` [Example 1, 3-cyclobutyl-N-((1-methyl-1H-pyrazol-5-yl)methyl)-2,3,4,5-tetrahydro-1H-benzo[d]azepine-7-carboxamide], the IC50 at human H3 receptor [1] is 1 nM; on human H3 receptor [2] it was 0.7 nM.

Consider `O=C(NCC1CCNCC1)c1ccc2c(c1)CCN(C1CCC1)CC2` [Example 5, 3-Cyclobutyl-N-(piperidin-4-ylmethyl)-2,3,4,5-tetrahydro-1H-benzo[d]azepine-7-carboxamide], for which the IC50 amounted to 22 nM on human H3 receptor [1] and 31 nM on human H3 receptor [2].

`O=C(NCc1cccnc1)c1ccc2c(c1)CCN(C1CCCC1)CC2` [Example 20, 3-Cyclopentyl-N-(pyridin-3-ylmethyl)-2,3,4,5-tetrahydro-1H-benzo[d]azepine-7-carboxamide]: the IC50 on human H3 receptor [1] stood at 11 nM; at human H3 receptor [2] it was 3 nM.

Regarding `O=C(NCc1ccccc1)c1ccc2c(c1)CCN(C1CCC1)CC2` [Example 23, N-Benzyl-3-cyclobutyl-2,3,4,5-tetrahydro-1H-benzo[d]azepine-7-carboxamide], the IC50 turned out to be 11 nM at human H3 receptor [1] and 2 nM on human H3 receptor [2].

With `CNC(=O)c1ccc2c(c1)CCN(C1CCC1)CC2` [Example 24, 3-Cyclobutyl-N-methyl-2,3,4,5-tetrahydro-1H-benzo[d]azepine-7-carboxamide], the IC50 at human H3 receptor [1] came out at 44 nM; at human H3 receptor [2], 16 nM.

In the case of `O=C(NC1CCCC1)c1ccc2c(c1)CCN(C1CCC1)CC2` [Example 29, 3-Cyclobutyl-N-cyclopentyl-2,3,4,5-tetrahydro-1H-benzo[d]azepine-7-carboxamide], the IC50 on human H3 receptor [1] is 13 nM; on human H3 receptor [2], 8 nM.

As for `O=C(NCC1CCCCC1)c1ccc2c(c1)CCN(C1CCC1)CC2` [Example 34, 3-Cyclobutyl-N-(cyclohexylmethyl)-2,3,4,5-tetrahydro-1H-benzo[d]azepine-7-carboxamide], the figures for the IC50 at human H3 receptor [1] and on human H3 receptor [2] were 26 nM and 5 nM, respectively.

Regarding `O=C(NCC1CCOCC1)c1ccc2c(c1)CCN(C1CCC1)CC2` [Example 35, 3-Cyclobutyl-N-((tetrahydro-2H-pyran-4-yl)methyl)-2,3,4,5-tetrahydro-1H-benzo[d]azepine-7-carboxamide], the IC50 came out at 11 nM on human H3 receptor [1] and 1 nM on human H3 receptor [2].

Consider `O=C(NCC1CCCO1)c1ccc2c(c1)CCN(C1CCC1)CC2` (centres unmarked) [Example 36, 3-cyclobutyl-N-((tetrahydrofuran-2-yl)methyl)-2,3,4,5-tetrahydro-1H-benzo[d]azepine-7-carboxamide], for which the 50% inhibitory concentration (IC50) was 12 nM on human H3 receptor [1] and 2 nM on human H3 receptor [2].

Take `O=C(NCc1ccncc1)c1ccc2c(c1)CCN(C1CCC1)CC2` [Example 40, 3-Cyclobutyl-N-(pyridin-4-ylmethyl)-2,3,4,5-tetrahydro-1H-benzo[d]azepine-7-carboxamide]: the results for the IC50 on human H3 receptor [1] and at human H3 receptor [2] were 3 nM and 2 nM, respectively.

On to `O=C(NCc1cccnc1)c1ccc2c(c1)CCN(C1CCC1)CC2` [Example 42, 3-Cyclobutyl-N-(pyridin-3-ylmethyl)-2,3,4,5-tetrahydro-1H-benzo[d]azepine-7-carboxamide], for which the IC50 amounted to 9 nM at human H3 receptor [1] and 30 nM on human H3 receptor [2].

As to `Nc1ncccc1CNC(=O)c1ccc2c(c1)CCN(C1CCC1)CC2` [Example 44, N-((2-Aminopyridin-3-yl)methyl)-3-cyclobutyl-2,3,4,5-tetrahydro-1H-benzo[d]azepine-7-carboxamide], the IC50 on human H3 receptor [1] worked out at 14 nM; on human H3 receptor [2], 3 nM.

As to `CNC(=O)c1ccc(CNC(=O)c2ccc3c(c2)CCN(C2CCC2)CC3)cc1` [Example 53, 3-Cyclobutyl-N-(4-(methylcarbamoyl)benzyl)-2,3,4,5-tetrahydro-1H-benzo[d]azepine-7-carboxamide], the IC50 on human H3 receptor [1] amounted to 51 nM; at human H3 receptor [2], 6 nM.

On to `O=C(NCc1cccc(C(F)(F)F)c1)c1ccc2c(c1)CCN(C1CCC1)CC2` [Example 59, 3-Cyclobutyl-N-(3-(trifluoromethyl)benzyl)-2,3,4,5-tetrahydro-1H-benzo[d]azepine-7-carboxamide], for which the IC50 is 6 nM at human H3 receptor [1] and 3 nM on human H3 receptor [2].

`O=C(NCc1cccc(-n2cncn2)c1)c1ccc2c(c1)CCN(C1CCC1)CC2` [Example 68, N-(3-(1H-1,2,4-Triazol-1-yl)benzyl)-3-cyclobutyl-2,3,4,5-tetrahydro-1H-benzo[d]azepine-7-carboxamide]: the IC50 on human H3 receptor [1] stood at 1 nM; on human H3 receptor [2], 3 nM.

Turning to `O=C(NCc1cccc(-c2nccs2)c1)c1ccc2c(c1)CCN(C1CCC1)CC2` [Example 69, 3-Cyclobutyl-N-(3-(thiazol-2-yl)benzyl)-2,3,4,5-tetrahydro-1H-benzo[d]azepine-7-carboxamide], the IC50 worked out at 2 nM at human H3 receptor [1] and 0.5 nM on human H3 receptor [2].

Regarding `O=C(NCc1cccc(Cn2cccn2)c1)c1ccc2c(c1)CCN(C1CCC1)CC2` [Example 70, N-(3-((1H-Pyrazol-1-yl)methyl)benzyl)-3-cyclobutyl-2,3,4,5-tetrahydro-1H-benzo[d]azepine-7-carboxamide], the figures for the IC50 at human H3 receptor [1] and on human H3 receptor [2] were 5 nM and 3 nM, respectively.

Consider `O=C(NCc1c[nH]c2ccccc12)c1ccc2c(c1)CCN(C1CCC1)CC2` [Example 72, N-((1H-Indol-3-yl)methyl)-3-cyclobutyl-2,3,4,5-tetrahydro-1H-benzo[d]azepine-7-carboxamide], for which the IC50 stood at 1 nM on human H3 receptor [1] and 2 nM at human H3 receptor [2].
